Experiments:
[1] = system: gemcitabine-resistant human pancreatic cancer SUIT2 cells; test: Antitumor effect of YB-1 ASO AmNA into blood, gemcitabine-resistant SUIT2 subcutaneous tumor; assay type: in vivo, nude mice
Protocol: Antitumor effect of administration into blood of YB-1 ASO of AmNA type, of which high safety was confirmed in Example 9 compared with ASO constituted with the conventional BNA, was examined. The human large intestine cancer cells HCT116 were subcutaneously transplanted to the thighs of nude mice. After subcutaneous tumors having a diameter of 6 to 7 mm (average tumor volume, 78 vs. 72 mm^3) were formed, 200 μg/200 μL of YB-1 ASO AmNA was administered (once every two weeks, total 2 times) into the blood from the caudal veins. The diameters of the tumors were measured over time, and tumor volumes calculated in accordance with a calculation formula, (Major axis)×(Minor axis)/2, were compared with those obtained with the control antisense group. The subcutaneous tumors were collected after one week from the second administration (day 28), and weights thereof were compared. In the YB-1 ASO AmNA group, both the tumor diameter and tumor weight were suppressed to about ⅕ of those observed with the control antisense group (FIG. 10, *P<0.05).
A human pancreatic cancer SUIT2 cell strain was prepared by culturing pancreatic cancer cells resistant to the anticancer agent, gemcitabine, for a long period of time in a medium containing gemcitabine at a low concentration (IC50 value, 100 nM for the resistant strain vs. 5 nM for the parent strain). […]

[2] = system: gemcitabine-resistant pancreatic cancer SUIT2-GR cells; test: Repetitive administration into blood, SUIT2-GR subcutaneous tumor growth; assay type: in vivo, nude mice; settings: 10 mg/kg BW caudal vein once a week over three weeks, days 14 and 21
Protocol: (§1) The tumor diameters were measured over time.

[3] = system: large intestine cancer HCT116 cells; test: Repetitive administration into blood, HCT116 subcutaneous tumor growth; assay type: in vivo, nude mice; settings: 10 mg/kg BW caudal vein once a week over three weeks, days 14 and 21
Protocol: as §1

CD31 = test: Microvessel density by CD31 immunostaining in SUIT2-GR subcutaneous tumor; assay type: in vivo, nude mice; settings: administration into the blood
Source text: The neovascularity marker CD31 in the SUIT2-GR subcutaneous tumor of the treatment experiment (A) was immunostained. As a result, it was observed that the microvessel density was decreased by the administration of #10 AmNA YB-1 antisense into the blood, and thus inhibition of neovascularization was induced (FIG. 14C).

YB-1 [4] = test: YB-1 expression in H226 by real-time RT-PCR; assay type: cell-based; settings: Lipofectamine RNAiMax
Source text: The #10 AmNA YB-1 antisense was introduced into cells of the malignant mesothelioma cell strain H226 using the reagent Lipofectamine RNAiMax, and expression of YB-1 was examined by real-time RT-PCR.

[5] = system: malignant mesothelioma cell strain H226; test: Proliferation of H226 cells; assay type: cell-based
[6] = system: malignant mesothelioma cell strain H226; test: H226 subcutaneous tumor model; assay type: in vivo; settings: 10 mg/kg BW caudal vein once a week for two weeks, vs control group
Protocol: Subcutaneous tumor models of the malignant mesothelioma cell strain H226 were prepared. […] A photograph of the subcutaneous tumor after the treatment is shown in the left panel.

YB-1 [7] = test: YB-1 expression in SKOV3 by real-time RT-PCR; assay type: cell-based; settings: Lipofectamine RNAiMax
Source text: The #10 AmNA YB-1 antisense was introduced into cells of the ovarian cancer cell strain SKOV3 using the reagent Lipofectamine RNAiMax, and expression of YB-1 was examined by real-time RT-PCR.

YB-1 [8] = test: YB-1 expression in AS44 by real-time RT-PCR; assay type: cell-based; settings: Lipofectamine RNAiMax
Source text: The #10 AmNA YB-1 antisense was introduced into cells of the gastric cancer cell strain AS44 using the reagent Lipofectamine RNAiMax, and expression of YB-1 was examined by real-time RT-PCR.

[9] = system: gastric cancer cell strain AS44-luc; test: AS44-luc peritoneum inoculation model, survival; assay type: in vivo; settings: 10 mg/kg BW intraperitoneally once a week for two weeks, vs control group
Protocol: Peritoneum inoculation models of gastric cancer cell strain AS44-luc stably expressing luciferase were prepared. Then, after 1 week from the transplantation of the cancer cells, 10 mg/kg BW of #10 AmNA YB-1 antisense was intraperitoneally administered once a week for two weeks, and the tumor volume was evaluated over time in terms of the luciferase activity.

[10] = system: pancreatic cancer cell strain MIA PaCa-2; test: Anticancer agent sensitivity enhancement, MIA PaCa-2; assay type: cell-based; settings: antisense 5 nM, 5-FU, gemcitabine
Protocol: (§2) The #10 AmNA YB-1 antisense (5 nM) was introduced into cells of the pancreatic cancer cell strain MIA PaCa-2 (FIG. 19A) and ovarian cancer cell strain SKOV-3 (FIG. 19B) using the reagent Lipofectamine RNAiMax, and cell-killing effects of the anticancer agent observed in the presence and absence of the antisense were compared. […] The anticancer agent concentrations that provided equivalent cell-killing effects are shown in blue color (5-FU) or red color (gemcitabine).

[11] = system: ovarian cancer cell strain SKOV-3; test: Anticancer agent sensitivity enhancement, SKOV-3; assay type: cell-based; settings: antisense 5 nM, 5-FU, gemcitabine
Protocol: as §2

[12] = system: pancreatic cancer cell strain SUIT-2; test: Radiation sensitivity enhancement, SUIT-2; assay type: cell-based; settings: antisense 10 nM
Protocol: The #10 AmNA YB-1 antisense (10 nM) was introduced into cells of the pancreatic cancer cell strain SUIT-2 using the reagent Lipofectamine RNAiMax, and cell-killing effects of X-ray irradiation observed in the presence and absence of the antisense were compared.

YB-1 [13] = test: YB-1 knockdown efficiency of NA, BNA and AmNA antisenses in HUVEC, HPAEC, MiaPaCa2 (real-time RT-PCR); assay type: cell-based; settings: 24 hours, vs naturally occurring type and LNA type antisense
Protocol: YB-1 naturally occurring type nucleic acid antisense (NA), LNA/BNA type nucleic acid antisense (BNA), and AmNA type nucleic acid antisense (AmNA) were introduced into cells of the vascular endothelial cell strains (HUVEC, HPAEC) and the pancreatic cancer cell strain (MiaPaCa2-) at various concentrations. RNAs were extracted 24 hours afterward, and the YB-1 expression was evaluated by real-time RT-PCR. […] The graphs show mean±SD (n=3, *P<0.01 vs. BNA, P<0.0001 vs. NA)

[14] = General blood and biochemical examinations, mice with Suit2-GR sc tumor; settings: SUIT2-GR and HCT116 models; 10 mg/kg BW once a week over three weeks
Protocol: Subcutaneous tumor models were created by subcutaneously transplanting gemcitabine-resistant pancreatic cancer SUIT2-GR cells and large intestine cancer HCT116 cells to the thighs of nude mice. After tumors having a volume of 50 mm^3 were formed, 10 mg/kg BW of #10AmNA YB-1 antisense was administered from the caudal veins once a week over three weeks. The tumor diameters were measured over time.

TCTcctgcaccCTGg (TCTCCTGCACCCTGG; chemistry not fully specified) [#10AmNA]
tumor weight as fraction of control antisense group [1]: about ⅓
tumor diameter as fraction of control antisense group ([1]; 200 μg/200 μL into blood, once every two weeks, total 2 times): about ⅓
subcutaneous tumor-suppressing effect [2]: significant subcutaneous tumor-suppressing effect
subcutaneous tumor-suppressing effect [3]: significant subcutaneous tumor-suppressing effect
microvessel density (CD31) (CD31): decreased
suppression of YB-1 expression (YB-1 [4]): Concentration-dependent suppression
suppression of proliferation [5]: suppression of proliferation
increase of the tumor in terms of tumor weight [6]: significantly suppressed
suppression of YB-1 expression (YB-1 [7]): Concentration-dependent suppression
suppression of YB-1 expression (YB-1 [8]): Concentration-dependent suppression
survival rate (Kaplan-Meier) [9]: significantly increased
cell-killing effects of the anticancer agent in presence of the antisense [10]: Enhancement of the cell-killing effect
cell-killing effects of the anticancer agent in presence of the antisense [11]: Enhancement of the cell-killing effect
cell-killing effects of X-ray irradiation in presence of the antisense [12]: Enhancement of the cell-killing effect
YB-1 knockdown efficiency (YB-1 [13]): significantly higher
safety with the every week administration protocol [14]: any problem was not observed

From patent US20170211073A1, “ANTISENSE ANTINEOPLASTIC AGENT” (priority 2014, published 2017)
